Assay results taken from PubChem BioAssay (NCI).
Where “and” joins values, the source holds several entries; their conditions need not be identical. Equal values may be shown once.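 Five concentrations, 48 hours, 96-well plates. GI50 = concentration required for 50% inhibition of growth. TGI is the concentration that stops growth completely.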

Assays:
Assay in all cases: DTP human tumour cell line panel, 48 h
[1] = system: DU-145 prostate
[2] = system: COLO 205 colon
[3] = system: HT29 colon
[4] = system: SK-MEL-2 melanoma
[5] = system: SW-620 colon
[6] = system: UACC-257 melanoma
[7] = system: SK-OV-3 ovarian
[8] = system: HCC-2998 colon
[9] = system: TK-10 renal
[10] = system: HCT-116 colon

Structure (SMILES)	TGI [1]	TGI [2] [µM]	TGI [3]	TGI [4]	TGI [5]	TGI [6]	TGI [7] [µM]	TGI [8]	TGI [9] [µM]	TGI [10] [µM]	GI50 [1]	GI50 [2]	GI50 [3]	GI50 [4]	GI50 [5]	GI50 [6]	GI50 [7]	GI50 [8]	GI50 [10]	GI50 [9]
CC(=O)OC12c3ccccc3-c3ccccc3C1C(C(=O)O)C2(Cl)C(=O)O (stereo not drawn)	> 10 µM	> 10	> 10 µM	> 10 µM	> 10 µM	> 10 µM	> 10	> 10 µM	> 10											
CC1(C)CCCC(C)(C2CCC3(C)C2C(O)CC2C4(C)CCC(O)C(C)(C)C4C(O)CC23C)O1 (stereo not drawn)	32.4 µM	24.4	14 µM	28 µM	41.6 µM	28.1 µM	32	27.9 µM	25.4	> 100										
Cc1ccc(/C=C/C(=N/N=C(N)N)c2ccccc2)cc1	10.8 µM	3.74	7.59 µM	8.04 µM	13.8 µM	12.9 µM	12.2	11.8 µM	12	12.2	3.33 µM	1.69 µM	2.53 µM	2.75 µM	2.47 µM	2.96 µM	2.99 µM	3.11 µM	3.05 µM	3.89 µM
c1ccc(Nc2nc(-c3ccccn3)cs2)nc1	> 100 µM	17.5	21.1 µM	30.4 µM	19.9 µM	15.4 µM	> 100	24.7 µM	> 100	21.6	0.65 µM	0.411 µM	0.603 µM	0.442 µM	0.61 µM	0.496 µM	0.74 µM	0.516 µM	0.326 µM	0.573 µM
CCC(C)[C@H](NC(=O)NC(=O)NC(=O)CI)C(=O)OC (stereo partly drawn)	28.4 µM	3.6	3.59 µM	27.3 µM	3.61 µM	25.8 µM	31.4	26.9 µM	11.8	18.3	15.2 µM	1.77 µM	1.92 µM	14.2 µM	1.86 µM	12.6 µM	17.2 µM	13.7 µM	6.05 µM	2.96 µM
C=C1CCC2C3(C)COC(c4c(OC)cccc4OC)OC3CCC2(C)C1C/C=C1/C(=O)OCC1O (stereo not drawn)	7.87 µM	4.95	6.62 µM	21.9 µM	3.23 µM	31 µM	20.3	11.2 µM	12.5	3.11	2.96 µM	2.23 µM	2.51 µM	7.18 µM	1.71 µM	13.5 µM	5.71 µM	4.18 µM	1.64 µM	4.03 µM
Nc1nc2c(nnn2C2OC(CO)C(O)C2O)c(=O)[nH]1 (stereo not drawn)	> 78.8 µM	1.67	42.6 µM	23.8 µM	> 100 µM	> 100 µM	> 23.9	> 27.3 µM	32.6	> 100	0.371 µM	0.393 µM	1.66 µM	0.777 µM	1.18 µM	7.29 µM	0.33 µM	0.854 µM	2.16 µM	2.05 µM
COc1cc2nc(-c3ccc(Cl)cc3)cc(OCCCN3CCCC3)c2cc1OC	13.8 µM	3.12	4.17 µM	5.22 µM	13.1 µM	4.87 µM	15.3	6.01 µM	7.41	10.1	2.15 µM	0.459 µM	0.454 µM	2.16 µM	3.12 µM	1.96 µM	2.42 µM	1.86 µM	0.699 µM	2.33 µM
O=[N+]([O-])c1ccc(Sc2nc(Cl)nc(NC3CCCC3)n2)cc1	> 10 µM	> 10	> 10 µM	> 10 µM	> 10 µM		> 10	> 10 µM	> 10	> 10	7.99 µM	> 10 µM	> 10 µM	> 10 µM	4.78 µM		> 10 µM	> 10 µM	4.83 µM	> 10 µM
O=C1CCCCC=C1C[N+](=O)[O-]	96.3 µM	39.7	50.3 µM	44.4 µM	26.1 µM	> 100 µM	> 100	43.6 µM	54.8	50.8	27.3 µM	11.6 µM	19.3 µM	19.5 µM	5.9 µM	28.6 µM	> 100 µM	20.5 µM	17 µM	24.7 µM
O=C1C(=O)c2ccccc2C(O)=C1CCCc1ccc(C2CCCC2)cc1	54.9 µM	54.3	19.5 µM	32.7 µM	17.1 µM	28.2 µM	56.9	8.34 µM	34.1	13.2	6.9 µM	6.82 µM	5.43 µM	7.2 µM	4.87 µM	3.91 µM	12.5 µM	2.99 µM	3.55 µM	6.99 µM
O=C1C(Nc2ccc(Br)cc2)=C(I)C(=O)c2ncccc21	4.26 µM	3.49	9.19 µM	4.77 µM	1.51 µM	1.95 µM	11.6	10.4 µM	9.74	1.08	1.14 µM	1.19 µM	1.83 µM	1.27 µM	0.531 µM	0.835 µM	5.61 µM	3.22 µM	0.336 µM	3.54 µM
CCN(CC)CCOc1ccc(/C=C2\C[C@H]3[C@H]4CC=C5C[C@@H](O)CC[C@]5(C)[C@H]4CC[C@]3(C)[C@H]2O)cc1OC	10.2 µM	> 50	> 50 µM	> 50 µM	11.7 µM	18.1 µM		20.6 µM	11.5	> 50	3.86 µM	12.8 µM	10.9 µM	0.135 µM	1.93 µM	8.42 µM		11.6 µM	14.6 µM	5.49 µM
CO[C@]12C=C/C(=C(/C(=O)OCc3cccnc3)C(=O)CCCCCCCC[C@@]3(OC)C=C/C(=C(/C(=O)OCc4cccnc4)C(=O)CCCCCCCC1)O3)O2	12.7 µM	5.06	> 50 µM	4 µM	6.75 µM	20.1 µM	> 50	1.84 µM	18.9	1.22	1.76 µM	1.49 µM	1.7 µM	1.34 µM	1.62 µM	2.01 µM	2.43 µM	0.979 µM	0.275 µM	2.93 µM
CC(C)(CCN=C(N)Nc1ccccn1)c1ccc(C(F)(F)F)cc1	31.8 µM	28.1	24 µM	32.9 µM	34 µM	32.8 µM	30.8	29.6 µM	29.5	24.3	16.2 µM	13.3 µM	10.4 µM	16.9 µM	16.1 µM	18 µM	15.8 µM	15.1 µM	10.6 µM	15.5 µM
COC(C(=O)C(O)C(C)O)C1Cc2cc3cc(OC4CC(OC5CC(O)C(O)C(C)O5)C(O)C(C)O4)c(C)c(O)c3c(O)c2C(=O)C1OC1CC(OC2CC(O)C(OC3CC(C)(O)C(O)C(C)O3)C(C)O2)C(O)C(C)O1 (stereo not drawn)	112 µg/mL and 127 µg/mL		2.03 µg/mL			0.0598 µg/mL and 0.027 µg/mL					0.0274 µg/mL and 0.0435 µg/mL	0.0112 µg/mL and 0.000702 µg/mL	0.00284 µg/mL	0.0112 µg/mL and 0.0015 µg/mL	0.0121 µg/mL and 0.00236 µg/mL	0.0122 µg/mL and 0.00115 µg/mL	0.0163 µg/mL and 0.0045 µg/mL	0.0117 µg/mL and 0.000297 µg/mL	0.0112 µg/mL and 0.015 µg/mL	0.0252 µg/mL and 0.295 µg/mL
Nc1ccccc1NC(=O)c1ccc(CN2CCC/C(=C\c3ccccn3)C2=O)cc1	> 100 µM	3.9	> 100 µM	11.8 µM	> 100 µM	14.8 µM	> 100	20.2 µM	4.18	> 100	3.15 µM	1.15 µM	0.443 µM	1.57 µM	0.745 µM	1.15 µM	1.93 µM	1.86 µM	0.381 µM	0.107 µM
Cc1[nH]c(C(=O)Nc2ccccc2OC2CCNCC2)c(Cl)c1Cl	2.04 µM	1.63	1.71 µM	1.91 µM	2.39 µM	2.12 µM	16.1	3.48 µM	1.62	1.59	1.05 µM	0.856 µM	0.875 µM	0.932 µM	0.99 µM	1.04 µM	8.46 µM	1.27 µM	0.837 µM	0.841 µM
CCN(Cc1ccccc1Cl)c1ccc(CO)c(Cl)c1	27.8 µM	16.3	20 µM	16.1 µM	16.8 µM	0.461 µM	21.2	25.4 µM	0.257	11.8	14 µM	5.72 µM	5.94 µM	2.39 µM	1.61 µM	0.094 µM	8.82 µM	11.9 µM	0.131 µM	< 0.0334 µM
CCC(CCC(C)C1CCC2C3CC=C4CC(OC5OC(CO)C(O)C(O)C5O)CCC4(C)C3CCC12C)C(C)C (stereo not drawn)	> 100 µM	> 100	> 100 µM	> 100 µM	> 100 µM	> 100 µM	> 100	> 100 µM	> 100	> 100										
NC(=S)N/N=C/c1ccc(N)cn1	7.76 µM	8.03	> 10 µM	> 10 µM	> 10 µM	> 10 µM	> 10	> 10 µM	> 10	> 10										
Clc1cc2c(nn1)Nc1ccccc1S2	> 100 µM	> 100	> 100 µM	> 100 µM	> 100 µM	> 100 µM	> 100	> 100 µM	> 100	> 100	> 100 µM	> 100 µM	> 100 µM	> 100 µM	> 100 µM	> 100 µM	> 100 µM	> 100 µM	> 100 µM	> 100 µM
O=C(c1ccco1)c1c(C(F)(F)F)nc2ccc(C(F)(F)F)cc2[n+]1[O-]	> 75.8 µM	> 100	> 100 µM	> 100 µM	> 100 µM	> 85.9 µM	> 100	> 100 µM	50	> 100	27.3 µM	> 100 µM	> 61.4 µM	> 64.6 µM	> 59.1 µM	> 52.6 µM	35 µM	57.6 µM	29.3 µM	23.9 µM
C/C(=N\NC(=S)N1CCN(C2CCCCCC2)CC1)c1ccccn1	2.44 µM	1.48	1.84 µM	9.66 µM and 3.16 µM	3.83 µM and 1.91 µM	1.21 µM	2.96	3.3 µM and 2.08 µM	3.34	1.65				2.02 µM	0.407 µM	< 0.001 µM		1.4 µM	< 0.001 µM	0.42 µM
N#Cc1ccsc1NC(=O)COC(=O)c1cccc(S(=O)(=O)N2CCc3ccccc32)c1	> 100 µM	> 100	> 100 µM	> 100 µM	> 100 µM	> 100 µM	> 100	> 100 µM	> 100	> 100	33.7 µM	27.5 µM	14.5 µM	> 100 µM	24.1 µM	28.9 µM	> 100 µM	39.2 µM	4.78 µM	> 100 µM
COC(=O)c1ccc2c(c1)C(=O)c1c-2n(C)c(=O)c2cc(OC)c(OC)cc12	> 50 µM	> 50	> 50 µM	> 50 µM	> 50 µM		> 50	> 50 µM	> 50	> 50	> 50 µM	> 50 µM	> 50 µM	37.8 µM	> 50 µM		> 50 µM	> 50 µM	40.1 µM	32.1 µM
Cn1cc(-c2csc(-c3cn(CCCCN4CCCCC4)c4ccc(F)cc34)n2)c2cccnc21	3.14 µM		3.16 µM	5.98 µM	3.44 µM	3.25 µM	32.7	3.08 µM	2.92		1.76 µM		1.7 µM	2.3 µM	1.83 µM	1.7 µM	16.2 µM	1.59 µM		1.58 µM
